EC50 data for 26 molecules are collected here from patent US8188098B2, “GPR119 receptor agonists” (Hoffmann-La Roche Inc., priority 2008, dated 2012).

The target in the test is T1, GPR119 receptor (Mesocricetus auratus, UniProt A0A1U8CD06).
T1 construct: which endogenously express the GPR119 receptor; host or cells: HIT-T15 hamster pancreatic islet cells
T1 sequence (A0A1U8CD06 1-334): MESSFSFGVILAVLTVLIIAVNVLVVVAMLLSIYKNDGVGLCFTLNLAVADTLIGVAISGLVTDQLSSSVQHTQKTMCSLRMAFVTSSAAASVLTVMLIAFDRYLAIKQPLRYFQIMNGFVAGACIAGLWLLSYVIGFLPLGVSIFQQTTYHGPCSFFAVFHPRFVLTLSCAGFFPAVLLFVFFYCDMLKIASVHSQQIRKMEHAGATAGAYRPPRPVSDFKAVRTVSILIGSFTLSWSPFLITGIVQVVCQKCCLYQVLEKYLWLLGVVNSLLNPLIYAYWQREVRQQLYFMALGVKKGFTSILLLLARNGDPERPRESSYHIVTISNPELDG
Briefly: cAMP assay in HIT-T15 hamster pancreatic islet cells (functional agonist activity). The format is cell-based. To be noted: HIT-T15 cells endogenously expressing GPR119; 30 min at 25° C.; intracellular cAMP. The protocol:
The functional agonist activities of compounds of the invention were characterized using a cAMP assay in HIT-T15 hamster pancreatic islet cells (American Type Culture Collection, Manassas, Va., USA) which endogenously express the GPR119 receptor. The cells were cultured in Kaighn's modification of Ham's F12 medium (Invitrogen Corporation, Carlsbad, Calif., USA) containing 10% horse serum, 2.5% FBS, and 1% Pen/Strep and grown in 225 cm^2 tissue culture flasks until they reached 75-85% confluence.
The cells were harvested 24 h prior to assay with 5 ml Versene®, washed with Kaighn/F12 medium and then plated into white 384-well plates (9000 cells/well) containing Kaighn/F12 medium. Prior to assay, the culture medium was replaced with a Kaighn/F12 medium without phenol red (50 μL/well) containing 0.5 mM 3-isobutyl-1-methylxanthine, 0.5 mg/ml BSA. The cells were incubated in the dark for 30 min at 25° C. in the absence or presence of varying concentrations of agonist (1 μL, 100% DMSO). The incubation media was discarded and replaced with the assay lysis buffer (50 μL/well) provided in the Tropix cAMP-Screen® kit (Applied Biosystems, Foster City, Calif., USA) and the plates incubated for 45 min at 37° C. The intracellular levels of cAMP generated in the HIT-T 15 cells were measured using the Tropix kit. In brief, 20 μL of the lysate was transferred into pre-coated antibody plates (384-well; Tropix kit) along with 10 μL of alkaline phosphatase conjugate and 20 μL of anti-cAMP antibody and the plates were incubated for 1 h at room temperature while shaking. The plates were then washed 5 times with wash buffer (70 μL) and tapped dry. CSPD®/Sapphire-II™ RTU substrate/enhancer solution (Applied Biosystems, Foster City, Calif., USA; 30 μL) was added and the plates were incubated for 45 min at room temperature while shaking. The signal generated was measured using a Wallac Victor V Luminometer (PerkinElmer Life And Analytical Sciences, Inc., Waltham, Mass., USA; 1 sec/well). EC50 values were calculated using the XLFit program (ID Business Solutions Ltd., Guildford, Surrey, UK).
With `CS(=O)(=O)c1ccc(Oc2ncnc3c2cnn3C2CCN(Cc3ccc4c(c3)OC(F)(F)O4)CC2)cc1` [Example 163, 1-[1-(2,2-Difluoro-benzo[1,3]dioxol-5-ylmethyl)-piperidin-4-yl]-4-(4-methanesulfonyl-phenoxy)-1H-pyrazolo[3,4-d]pyrimidine], the response was half-maximal at 0.14 µM (EC50).

Turning to `Cc1ncccc1Oc1ncnc2c1cnn2C1CCN(C(=O)OCC(C)C)CC1` [Example 107, 4-[4-(2-Methyl-pyridin-3-yloxy)-pyrazolo[3,4-d]pyrimidin-1-yl]-piperidine-1-carboxylic acid isobutyl ester], the EC50 (as a rule, the concentration at which the effect is half-maximal) was determined as 0.19 µM.

Turning to `CC(C)c1noc(N2CCC(n3ncc4c(Oc5ccc(S(C)(=O)=O)cc5)ncnc43)CC2)n1` [Example 126, 1-[1-(3-Isopropyl-[1,2,4]oxadiazol-5-yl)-piperidin-4-yl]-4-(4-methanesulfonyl-phenoxy)-1H-pyrazolo[3,4-d]pyrimidine], the EC50 amounted to 0.43 µM.

In the case of `CC(C)OC(=O)N1CCC(n2ncc3c(Oc4ccccc4C#N)ncnc32)CC1` [Example 19, 4-[4-(2-Cyano-phenoxy)-pyrazolo[3,4-d]pyrimidin-1-yl]-piperidine-1-carboxylic acid isopropyl ester], the EC50 came to 0.71 µM.

`CC(C)(C)OC(=O)N1CCC(n2ncc3c(Oc4cc(F)c(F)cc4F)ncnc32)CC1` [Example 35, 4-[4-(2,4,5-Trifluoro-phenoxy)-pyrazolo[3,4-d]pyrimidin-1-yl]-piperidine-1-carboxylic acid tert-butyl ester]: a half-maximal response (EC50) required 0.088 µM.

Consider `CC(C)(C)OC(=O)N1CCCC(n2ncc3c(Oc4ccc(S(C)(=O)=O)cc4)ncnc32)C1` (single isomer, unassigned) [Example 89], for which the half-maximal effective concentration (EC50) was determined as 0.21 µM. This EC50 lies about 2.4-fold higher than the previous one.

For `CC(C)(C)OC(=O)N1CCC(n2ncc3c(Oc4ccc(C(F)(F)F)cc4Cl)ncnc32)CC1` [Example 54, 4-[4-(2-Chloro-4-trifluoromethyl-phenoxy)-pyrazolo[3,4-d]pyrimidin-1-yl]-piperidine-1-carboxylic acid tert-butyl ester], it took 0.083 µM to reach a half-maximal effect (EC50).

In turn, `CS(=O)(=O)c1ccc(Oc2ncnc3c2cnn3C2CCN(C(=O)c3cc(Cl)cc(Cl)c3)CC2)cc1` [Example 150, (3,5-Dichloro-phenyl)-{4-[4-(4-methanesulfonyl-phenoxy)-pyrazolo[3,4-d]pyrimidin-1-yl]-piperidin-1-yl}-methanone] returned an EC50 of 2.1 µM.

As for `CCOc1ccc(Oc2ncnc3c2cnn3C2CCN(C(=O)OC3CCCC3)CC2)c(F)c1` [Example 117, 4-[4-(4-Ethoxy-2-fluoro-phenoxy)-pyrazolo[3,4-d]pyrimidin-1-yl]-piperidine-1-carboxylic acid cyclopentyl ester], the EC50 worked out at 0.17 µM. Compared with the last molecule, the EC50 is about 12-fold lower.

Turning to `Cc1nc(Cl)ccc1Oc1ncnc2c1cnn2C1CCN(C(=O)OC(C)(C)C)CC1` [Example 97, 4-[4-(6-Chloro-2-methyl-pyridin-3-yloxy)-pyrazolo[3,4-d]pyrimidin-1-yl]-piperidine-1-carboxylic acid tert-butyl ester], a half-maximal response (EC50) required 0.53 µM.

Regarding `CS(=O)(=O)c1ccc(Oc2ncnc3c2cnn3C2CCN(C(=O)c3nc4ccccc4s3)CC2)cc1` [Example 156, Benzothiazol-2-yl-{4-[4-(4-methanesulfonyl-phenoxy)-pyrazolo[3,4-d]pyrimidin-1-yl]-piperidin-1-yl}-methanone], a half-maximal effect (EC50) was put at 0.16 µM.

`CC(C)(C)OC(=O)N1CCC(n2ncc3c(Oc4ccc5c(c4)CCS5(=O)=O)ncnc32)CC1` [Example 79, 4-[4-(1,1-Dioxo-2,3-dihydro-1H-1λ^6-benzo[b]thiophen-5-yloxy)-pyrazolo[3,4-d]pyrimidin-1-yl]-piperidine-1-carboxylic acid tert-butyl ester]: it took 0.82 µM to reach a half-maximal effect (EC50). Compared with the last molecule, the EC50 is about 5.1-fold higher.

In the case of `Cc1cc(Oc2ncnc3c2cnn3C2CCN(C(=O)OC(C)(C)C)CC2)ccc1NS(C)(=O)=O` [Example 68, 4-[4-(4-Methanesulfonylamino-3-methyl-phenoxy)-pyrazolo[3,4-d]pyrimidin-1-yl]-piperidine-1-carboxylic acid tert-butyl ester], the EC50 was found to be 0.73 µM.

Regarding `CC(C)(C)CC(=O)N1CCC(n2ncc3c(Oc4ccc(S(C)(=O)=O)cc4)ncnc32)CC1` [Example 144, 1-{4-[4-(4-Methanesulfonyl-phenoxy)-pyrazolo[3,4-d]pyrimidin-1-yl]-piperidin-1-yl}-3,3-dimethyl-butan-1-one], the EC50 was 0.27 µM.

`CC(C)(C)OC(=O)N1CCC(n2ncc3c(Oc4ccc5c(c4)C=CS5(=O)=O)ncnc32)CC1` [Example 78, 4-[4-(1,1-Dioxo-1H-1λ^6-benzo[b]thiophen-5-yloxy)-pyrazolo[3,4-d]pyrimidin-1-yl]-piperidine-1-carboxylic acid tert-butyl ester] had an EC50 of 0.75 µM.

In the case of `Cc1nc(S(C)(=O)=O)ccc1Oc1ncnc2c1cnn2C1CCN(C(=O)OC(C)C)CC1` [Example 29, 4-[4-(6-Methanesulfonyl-2-methyl-pyridin-3-yloxy)-pyrazolo[3,4-d]pyrimidin-1-yl]-piperidine-1-carboxylic acid isopropyl ester], the half-maximal effective concentration (EC50) stood at 0.14 µM.

As to `CC(C)(C)OC(=O)N1CCC(n2ncc3c(Oc4c(C#N)ccc(F)c4F)ncnc32)CC1` [Example 49, 4-[4-(6-Cyano-2,3-difluoro-phenoxy)-pyrazolo[3,4-d]pyrimidin-1-yl]-piperidine-1-carboxylic acid tert-butyl ester], the EC50 was determined as 0.048 µM. Against the preceding molecule, the EC50 is about 2.9-fold lower.

On to `CC(C)(C)OC(=O)N1CCC(n2ncc3c(Oc4ccc(C#N)cc4)ncnc32)CC1` [Example 46, 4-[4-(4-Cyano-phenoxy)-pyrazolo[3,4-d]pyrimidin-1-yl]-piperidine-1-carboxylic acid tert-butyl ester], for which the concentration for a half-maximal effect (EC50) was found to be 0.48 µM.

As for `Cc1ncccc1Oc1ncnc2c1cnn2C1CCN(C(=O)Oc2ccc([N+](=O)[O-])cc2)CC1` [Example 123, 4-[4-(2-Methyl-pyridin-3-yloxy)-pyrazolo[3,4-d]pyrimidin-1-yl]-piperidine-1-carboxylic acid 4-nitro-phenyl ester], a half-maximal effect (EC50) was put at 2.7 µM.

The molecule `CC(C)(C)OC(=O)N1CCC(n2ncc3c(Oc4ccc(Cl)cc4C#N)ncnc32)CC1` [Example 51, 4-[4-(4-Chloro-2-cyano-phenoxy)-pyrazolo[3,4-d]pyrimidin-1-yl]-piperidine-1-carboxylic acid tert-butyl ester] yielded an EC50 of 0.11 µM.

`Cc1cc(=O)oc2cc(Oc3ncnc4c3cnn4C3CCN(C(=O)OC(C)(C)C)CC3)ccc12` [Example 76, 4-[4-(4-Methyl-2-oxo-2H-chromen-7-yloxy)-pyrazolo[3,4-d]pyrimidin-1-yl]-piperidine-1-carboxylic acid tert-butyl ester] returned an EC50 of 3 µM.

Regarding `CC(C)(C)OC(=O)N1CCC(n2ncc3c(Oc4ccc(S(C)(=O)=O)cc4F)ncnc32)CC1` [Example 60, 4-[4-(2-Fluoro-4-methanesulfonyl-phenoxy)-pyrazolo[3,4-d]pyrimidin-1-yl]-piperidine-1-carboxylic acid tert-butyl ester], it took 0.048 µM to reach a half-maximal effect (EC50).

`COc1ccc(Oc2ncnc3c2cnn3C2CCN(C(=O)OC(C)(C)C)CC2)cn1` [Example 96, 4-[4-(6-Methoxy-pyridin-3-yloxy)-pyrazolo[3,4-d]pyrimidin-1-yl]-piperidine-1-carboxylic acid tert-butyl ester] had an EC50 of 1.5 µM.

`Cc1nc(-n2cncn2)ccc1Oc1ncnc2c1cnn2C1CCN(C(=O)OC(C)(C)C)CC1` [Example 101, 4-[4-(2-Methyl-6-[1,2,4]triazol-1-yl-pyridin-3-yloxy)-pyrazolo[3,4-d]pyrimidin-1-yl]-piperidine-1-carboxylic acid tert-butyl ester] returned a concentration for a half-maximal effect (EC50) of 0.36 µM.

With `CC(C)(OC(=O)N1CCC(n2ncc3c(Oc4ccc(S(C)(=O)=O)cc4)ncnc32)CC1)C(F)(F)F` [Example 111, 4-[4-(4-Methanesulfonyl-phenoxy)-pyrazolo[3,4-d]pyrimidin-1-yl]-piperidine-1-carboxylic acid 2,2,2-trifluoro-1,1-dimethyl-ethyl ester], the EC50 worked out at 0.05 µM. This EC50 lies about 7.2-fold lower than the previous one.

Take `CC[C@@H](C)OC(=O)N1CCC(n2ncc3c(Oc4ccc(S(C)(=O)=O)cc4)ncnc32)CC1` [Example 105, 4-[4-(4-Methanesulfonyl-phenoxy)-pyrazolo[3,4-d]pyrimidin-1-yl]-piperidine-1-carboxylic acid (R)-sec-butyl ester]: the EC50 worked out at 0.15 µM.
